Measurements: patent US12209102B2, “Heterocyclic compounds and uses thereof” (Kumquat Biosciences Inc., priority 2022, dated 2025)

Legend:
[1] = molecular target: T1, K-Ras G12D (Homo sapiens, UniProt P01116, G12D); assay: HTRF resonance energy transfer assay, K-Ras G12D / SOS1 interaction; format: biochemical; details: HTRF assay of Example 5; read-out: IC50 against K-Ras G12D
T1 construct: made in house; host or cells: E. coli BL21 (DE3)
Procedure, shortened: (§1)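 Compounds, tested in duplicate at 10 μM down to 0.01 μM, were read after about 10 min or more by HTRF as the 665/620 nm emission ratio (337 nm excitation) to derive IC50. This ratio reports FRET between an anti-GST-Eu donor on GST-K-Ras (wild-type or mutant) and an anti-6His-XL665 acceptor on His-hSOS1. Buffer: ~5 mM HEPES pH 7.4, 150 mM NaCl, 1 mM DTT, 0.05% BSA, 0.0025% Igepal.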

[2] = molecular target: T2, K-Ras G12S (Homo sapiens, UniProt P01116, G12S); assay: HTRF resonance energy transfer assay, K-Ras G12S / SOS1 interaction; format: biochemical; details: HTRF assay of Example 5; read-out: IC50 against K-Ras G12S
T2 construct: made in house; host or cells: E. coli BL21 (DE3)
T2 sequence (P01116 1-188 isoform P01116-2 G12S): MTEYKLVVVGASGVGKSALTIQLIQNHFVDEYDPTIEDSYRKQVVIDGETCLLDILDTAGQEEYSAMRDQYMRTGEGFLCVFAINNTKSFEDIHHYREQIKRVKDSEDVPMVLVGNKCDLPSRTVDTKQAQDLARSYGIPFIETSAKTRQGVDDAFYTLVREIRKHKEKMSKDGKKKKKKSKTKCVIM
Procedure, shortened: as §1

[3] = molecular target: T3, K-Ras WT (Homo sapiens, UniProt P01116); assay: HTRF resonance energy transfer assay, K-Ras WT / SOS1 interaction; format: biochemical; details: HTRF assay of Example 5; read-out: IC50 against K-Ras WT
T3 construct: made in house; host or cells: E. coli BL21 (DE3)
T3 sequence (P01116 1-188 isoform P01116-2): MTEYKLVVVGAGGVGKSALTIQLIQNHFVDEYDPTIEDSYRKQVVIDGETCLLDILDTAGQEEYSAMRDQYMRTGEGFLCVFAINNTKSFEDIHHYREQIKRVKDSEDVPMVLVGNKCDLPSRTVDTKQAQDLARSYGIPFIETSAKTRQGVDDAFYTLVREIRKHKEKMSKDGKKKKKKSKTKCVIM
Procedure, shortened: as §1

[4] = molecular target: T4, K-Ras G12V (Homo sapiens, UniProt P01116, G12V); assay: HTRF resonance energy transfer assay, K-Ras G12V / SOS1 interaction; format: biochemical; details: HTRF assay of Example 5; read-out: IC50 against K-Ras G12V
T4 construct: made in house; host or cells: E. coli BL21 (DE3)
T4 sequence (P01116 1-188 isoform P01116-2 G12V): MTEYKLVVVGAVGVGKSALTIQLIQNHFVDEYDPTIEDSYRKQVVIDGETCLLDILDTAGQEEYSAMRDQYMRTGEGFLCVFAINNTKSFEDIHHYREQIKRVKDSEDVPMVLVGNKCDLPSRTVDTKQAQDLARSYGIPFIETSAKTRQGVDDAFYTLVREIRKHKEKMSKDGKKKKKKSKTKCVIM
Procedure, shortened: as §1

[5] = tested on: A549 cells; assay: Ras cellular assay, growth of cells with K-Ras G12S mutation (CellTiter-Glo); format: cell-based; details: Homo sapiens, cell growth, Example 9, G12S mutation, read-out: IC50 against A549 cells
Procedure, shortened: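 Growth inhibition IC50 values come from four-parameter fits of CellTiter-Glo luminescence, read about 6 days after compound addition. G12S-mutant A549 cells (e.g. 800/well, RPMI-1640 + 10% heat-inactivated FBS) were plated in tissue-culture-treated or ultra-low-attachment 384-well format. Dosing began the following day with serial dilutions, e.g. 10 points, 3-fold.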

[6] = tested on: SW620 cells; assay: Ras cellular assay, growth of cells with K-Ras G12V mutation (CellTiter-Glo); format: cell-based; details: Homo sapiens, SW-620; cell growth, Example 9, G12V mutation; read-out: IC50 against SW620 cells
Procedure, shortened: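 IC50 values came from a four-parameter fit of CellTiter-Glo viability, read roughly 6 days after dosing with e.g. a 10-point threefold dilution series. G12V-mutant SW620 cells (e.g. 800 per well) had been plated the previous day in RPMI-1640/10% heat-inactivated FBS, on tissue culture-treated or ultra-low attachment plates.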

T1 sequence (P01116 1-188 isoform P01116-2 G12D): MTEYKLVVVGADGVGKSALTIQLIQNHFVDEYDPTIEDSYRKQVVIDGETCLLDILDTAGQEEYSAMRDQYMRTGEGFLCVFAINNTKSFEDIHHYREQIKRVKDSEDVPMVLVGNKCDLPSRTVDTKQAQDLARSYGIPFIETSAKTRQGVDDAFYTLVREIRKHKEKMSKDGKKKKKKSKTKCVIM

SMILES | IC50 [1] [nM] | IC50 [2] [nM] | IC50 [3] [nM] | IC50 [4] [nM] | IC50 [5] [nM] | IC50 [6] [nM]
C[C@H](Oc1nc2c3c(c(Cl)c(-c4ccc(F)c5sc(N)c(C#N)c45)c(F)c3n1)OCCN2C1CCN(C(=O)c2ccnn2C)CC1)[C@@H]1CCCN1C [Compound 1012, 2-amino-4-(8-chloro-10-fluoro-4-(1-(1-methyl-1H-pyrazole-5-carbonyl)piperidin-4-yl)-2-((S)-1-((S)-1-methylpyrrolidin-2-yl)ethoxy)-5,6-dihydro-4H-[1,4]oxazepino[5,6,7-de]quinazolin-9-yl)-7-fluorobenzo[b]thiophene-3-carbonitrile] | < 100 | < 100 | < 100 | < 100 | < 5000 | < 5000
COCC1CN(CC(F)F)c2nc(OC[C@@]34CCCN3C[C@H](F)C4)nc3c(F)c(-c4ccc(F)c5sc(N)c(C#N)c45)c(Cl)c(c23)O1 (stereo partly drawn) [Compound 1030, 2-amino-4-(8-chloro-4-(2,2-difluoroethyl)-10-fluoro-2-(((2R,7aS)-2-fluorotetrahydro-1H-pyrrolizin-7a(5H)-yl)methoxy)-6-(methoxymethyl)-5,6-dihydro-4H-[1,4]oxazepino[5,6,7-de]quinazolin-9-yl)-7-fluorobenzo[b]thiophene-3-carbonitrile] | < 100 | < 100 | < 100 | < 100 | < 5000 | < 5000
N#Cc1c(N)sc2c(F)ccc(-c3c(Cl)c4c5c(nc(OC[C@@]67CCCN6C[C@H](F)C7)nc5c3F)N(C3CC(C#N)C3)CCO4)c12 (stereo partly drawn) [Compound 1043, 2-amino-4-(8-chloro-4-(3-cyanocyclobutyl)-10-fluoro-2-(((2R,7aS)-2-fluorotetrahydro-1H-pyrrolizin-7a(5H)-yl)methoxy)-5,6-dihydro-4H-[1,4]oxazepino[5,6,7-de]quinazolin-9-yl)-7-fluorobenzo[b]thiophene-3-carbonitrile] | < 100 | < 100 | < 100 | < 100 | < 5000 | < 5000
C[C@H]1CN(C2CC2)c2nc(OC[C@@]34CCCN3C[C@H](F)C4)nc3c(F)c(-c4ccc(F)c5sc(N)c(C#N)c45)c(Cl)c(c23)O1 [Compound 1044, 2-amino-4-((6S)-8-chloro-4-cyclopropyl-10-fluoro-2-(((2R,7aS)-2-fluorotetrahydro-1H-pyrrolizin-7a(5H)-yl)methoxy)-6-methyl-5,6-dihydro-4H-[1,4]oxazepino[5,6,7-de]quinazolin-9-yl)-7-fluorobenzo[b]thiophene-3-carbonitrile] | < 100 | < 100 | < 100 | < 100 | < 5000 | < 5000
C[C@H]1CN(C2CCN(C(=O)C3CC3C#N)CC2)c2nc(OC[C@@]34CCCN3C[C@H](F)C4)nc3c(F)c(-c4ccc(F)c5sc(N)c(C#N)c45)c(Cl)c(c23)O1 (stereo partly drawn) [Compound 1051, 2-amino-4-((6S)-8-chloro-4-(1-(2-cyanocyclopropane-1-carbonyl)piperidin-4-yl)-10-fluoro-2-(((2R,7aS)-2-fluorotetrahydro-1H-pyrrolizin-7a(5H)-yl)methoxy)-6-methyl-5,6-dihydro-4H-[1,4]oxazepino[5,6,7-de]quinazolin-9-yl)-7-fluorobenzo[b]thiophene-3-carbonitrile] | < 100 | < 100 | < 100 | < 100 | < 5000 | < 5000
CC(C1CC1)N1CCOc2c(Cl)c(-c3ccc(F)c4sc(N)c(C#N)c34)c(F)c3nc(OC[C@@]45CCCN4C[C@H](F)C5)nc1c23 (stereo partly drawn) [Compound 1054, 2-amino-4-(8-chloro-4-(1-cyclopropylethyl)-10-fluoro-2-(((2R,7aS)-2-fluorotetrahydro-1H-pyrrolizin-7a(5H)-yl)methoxy)-5,6-dihydro-4H-[1,4]oxazepino[5,6,7-de]quinazolin-9-yl)-7-fluorobenzo[b]thiophene-3-carbonitrile] | < 100 | < 100 | < 100 | < 100 | < 5000 | < 5000
CN(CCN1CCOc2c(Cl)c(-c3ccc(F)c4sc(N)c(C#N)c34)c(F)c3nc(OC[C@@]45CCCN4C[C@H](F)C5)nc1c23)C(=O)C1COC1 [Compound 1058, N-(2-(9-(2-amino-3-cyano-7-fluorobenzo[b]thiophen-4-yl)-8-chloro-10-fluoro-2-(((2R,7aS)-2-fluorotetrahydro-1H-pyrrolizin-7a(5H)-yl)methoxy)-5,6-dihydro-4H-[1,4]oxazepino[5,6,7-de]quinazolin-4-yl)ethyl)-N-methyloxetane-3-carboxamide] | < 100 | < 100 | < 100 | < 100 | < 5000 | < 5000
N#Cc1c(N)sc2c(F)ccc(-c3c(Cl)c4c5c(nc(OC[C@@]67CCCN6C[C@H](F)C7)nc5c3F)N(C3CC(NC(=O)[C@@H]5N[C@H]5C5CC5)C3)CCO4)c12 (stereo partly drawn) [Compound 1082, (2R,3S)-N-(3-(9-(2-amino-3-cyano-7-fluorobenzo[b]thiophen-4-yl)-8-chloro-10-fluoro-2-(((2R,7aS)-2-fluorotetrahydro-1H-pyrrolizin-7a(5H)-yl)methoxy)-5,6-dihydro-4H-[1,4]oxazepino[5,6,7-de]quinazolin-4-yl)cyclobutyl)-3-cyclopropylaziridine-2-carboxamide] | < 100 | < 100 | < 100 | < 100 | < 5000 | < 5000

Second part, the compound after the results:

IC50 [1] [nM] | IC50 [2] [nM] | IC50 [3] [nM] | IC50 [4] [nM] | IC50 [5] [nM] | IC50 [6] [nM] | SMILES
< 100 | < 100 | < 100 | < 100 | < 5000 | < 5000 | N#Cc1c(N)sc2c(F)ccc(-c3c(Cl)c4c5c(nc(OC[C@@]67CCCN6C[C@H](F)C7)nc5c3F)N(CC3CCOCC3)CCO4)c12 [Compound 1067, 2-amino-4-(8-chloro-10-fluoro-2-(((2R,7aS)-2-fluorotetrahydro-1H-pyrrolizin-7a(5H)-yl)methoxy)-4-((tetrahydro-2H-pyran-4-yl)methyl)-5,6-dihydro-4H-[1,4]oxazepino[5,6,7-de]quinazolin-9-yl)-7-fluorobenzo[b]thiophene-3-carbonitrile]
< 100 | < 100 | < 100 | < 100 | < 5000 | < 5000 | CC1(C)CC(N2CCOc3c(Cl)c(-c4ccc(F)c5sc(N)c(C#N)c45)c(F)c4nc(OC[C@@]56CCCN5C[C@H](F)C6)nc2c34)CO1 (stereo partly drawn) [Compound 1071, 2-amino-4-(8-chloro-4-(5,5-dimethyltetrahydrofuran-3-yl)-10-fluoro-2-(((2R,7aS)-2-fluorotetrahydro-1H-pyrrolizin-7a(5H)-yl)methoxy)-5,6-dihydro-4H-[1,4]oxazepino[5,6,7-de]quinazolin-9-yl)-7-fluorobenzo[b]thiophene-3-carbonitrile]
< 100 | < 100 | < 100 | < 100 | < 5000 | < 5000 | CNC(=O)C1CC(N2CCOc3c(Cl)c(-c4ccc(F)c5sc(N)c(C#N)c45)c(F)c4nc(OC[C@@]56CCCN5C[C@H](F)C6)nc2c34)CCO1 (stereo partly drawn) [Compound 1094, 4-(9-(2-amino-3-cyano-7-fluorobenzo[b]thiophen-4-yl)-8-chloro-10-fluoro-2-(((2R,7aS)-2-fluorotetrahydro-1H-pyrrolizin-7a(5H)-yl)methoxy)-5,6-dihydro-4H-[1,4]oxazepino[5,6,7-de]quinazolin-4-yl)-N-methyltetrahydro-2H-pyran-2-carboxamide]
< 100 | < 100 | < 100 | < 100 | < 5000 | < 5000 | N#Cc1c(N)sc2c(F)ccc(-c3c(Cl)c4c5c(nc(OC[C@@]67CCCN6C[C@H](F)C7)nc5c3F)N(C3CCCCC3)CCO4)c12 [Compound 1116, 2-amino-4-(8-chloro-4-cyclohexyl-10-fluoro-2-(((2R,7aS)-2-fluorotetrahydro-1H-pyrrolizin-7a(5H)-yl)methoxy)-5,6-dihydro-4H-[1,4]oxazepino[5,6,7-de]quinazolin-9-yl)-7-fluorobenzo[b]thiophene-3-carbonitrile]
< 100 | < 100 | < 100 | < 100 | < 5000 | < 5000 | CNC(=O)C1CCC(N2CCOc3c(Cl)c(-c4ccc(F)c5sc(N)c(C#N)c45)c(F)c4nc(OC[C@@]56CCCN5C[C@H](F)C6)nc2c34)CC1 (stereo partly drawn) [Compound 1120, 4-(9-(2-amino-3-cyano-7-fluorobenzo[b]thiophen-4-yl)-8-chloro-10-fluoro-2-(((2R,7aS)-2-fluorotetrahydro-1H-pyrrolizin-7a(5H)-yl)methoxy)-5,6-dihydro-4H-[1,4]oxazepino[5,6,7-de]quinazolin-4-yl)-N-methylcyclohexane-1-carboxamide]
